The source of these data is US7033808B2, “Carbonyl reductase, gene thereof and method of using the same” (Kaneka Corporation, priority 2000, dated 2006).

Like-named read-outs stand apart in the source and are kept apart here.

For this experiment, the system named is BRD. As to the kind of experiment: BRD reducing activity with added metal ions and inhibitors. The class given is biochemical, Micrococcus luteus IFO 13867.
The mark [1] stands for this setting: addition level 1 mM, activity without addition = 100%.
Where [2] appears, read: addition level 0.01 mM, activity without addition = 100%.
[3] abbreviates: addition level 0.1 mM, activity without addition = 100%.

Compound `[Cl-].[Cl-].[Co+2]` [CoCl2] returned a Relative activity of 99%.
On to `CCN1C(=O)C=CC1=O` [NEM], for which the Relative activity under setting [1] is on record as 94%.
Regarding `O=C(O)c1cc(SSc2ccc([N+](=O)[O-])c(C(=O)O)c2)ccc1[N+](=O)[O-]` [DTNB], the Relative activity under setting [2] is reported as 93%.
The compound `O=C(O)CN(CCN(CC(=O)O)CC(=O)O)CC(=O)O` [EDTA] gave a Relative activity of 88%.
Take `O=S(=O)([O-])[O-].[Zn+2]` [ZnSO4]: the Relative activity under setting [1] stood at 99%.
Take `[Cl][Mn][Cl]` [MnCl2]: under setting [1], the Relative activity was 89%.
With `O=c1c(O)c(-c2ccc(O)c(O)c2)oc2cc(O)cc(O)c12` [Quercetin], the Relative activity under setting [2] was determined as 94%.
For the compound `O=S(=O)([O-])[O-].[Mg+2]` [MgSO4], the Relative activity under setting [1] worked out at 99%.
`O=C(O)CI` [Iodoacetic acid] yielded a Relative activity of 89%.
Under setting [1], `c1cnc2c(c1)ccc1cccnc12` [1,10-Phenanthroline] gave a Relative activity of 90%.
For the compound `O=C(O)c1cc[c]([Hg][Cl])cc1` [PCMB], the Relative activity under setting [3] was determined as 78%.
`O=S(=O)([O-])[O-].[Cu+2]` [CuSO4]: the Relative activity is 6% under setting [3] and 5% under setting [1]. Also, the “Inhibition of the enzyme” value (result in words) is given as “inhibited”.
Turning to `O=C1NC(=O)C(c2ccccc2)(c2ccccc2)N1` [5,5-Diphenylhydantoin], the Relative activity (addition level 0.5 mM, activity without addition = 100%) came out at 99%.
`O=S(=O)(F)Cc1ccccc1` [PMSF, phenylmethylsulfonyl fluoride] gave a Relative activity under setting [1] of 89%.
